Data on eleven molecules can be found in US9914712B2, “Antibacterial thiazolecarboxylic acids” (priority 2013, dated 2018).

Molecules are shown by their SMILES.

As usually defined, the Ki is a measure of affinity in units of concentration, obtained from inhibition or displacement. Low values mean a stronger hold on the target, high ones a looser hold on the target.

Assay [1] has as its system NTBC039. Briefly: MIC of meropenem in presence of the inhibitor, broth microdilution. Conditions: compound at 100 μM, 37° C., 18-20 h. Format: cell-based. (In general: Broth dilution looks for growth in wells or tubes with falling amounts of substance.)
Assay [2] has as its target T1, NDM-1 (Klebsiella pneumoniae, UniProt C7C422).
T1 construct: made in house
The assay is described as follows: In vitro MBL inhibition assay, imipenem hydrolysis (NDM-1). It counts as biochemical. To be noted: Ki NDM-1, imipenem substrate, Ki from IC50 by Cheng-Prusoff, Km 70 μM. How it is done:
NDM-1 is produced and purified as disclosed in Yong et al, Antimicrobial Agents & Chemotherapy, (2009) 53(12), 5046-54.
(§1) Reaction buffers were prepared in a UV-transparent 96-well microplate, which buffer contains 10 mM HEPES pH 7.5, 50 μM ZnSO4, 20 μg/mL BSA. An amount of 75 ng of protein was added to each well.
(§2) Spectrophometric assays are performed to determine NDM-1/VIM-2/IMP-1 carbapenemase activity using purified proteins (50 ng for NDM-1/VIM-2, 25 ng IMP-1) from NDM-1/VIM-2/IMP-1 expressing bacteria using […] of imipenem as substrate in 10 mM HEPES pH 7.5, 50 μM ZnSO4. MBL hydrolysis is measured at 299 nm for 10 minutes at 30° C. as the absorbance changes due to the opening of beta-lactam ring of the antibiotic.
(§3) The Ki values obtained for selected example compounds are shown in Table 3, where they are compared with the values for pyridine-2-carboxylic acid.

The test system of assay [3] is NTBC023 strain: Klebsiella pneumoniae producing VIM-1+SHV-5. The assay is described as follows: MIC of meropenem in presence of the inhibitor, broth microdilution. Format: cell-based. To be noted: compound at 100 μM, 37° C., 18-20 h. How it is done: (§4) The minimal inhibitory concentration (MIC) of meropenem in presence of the inhibitor is routinely assessed against 3 representative clinical strains: • NTBC020 Strain: Escherichia coli producing NDM-1+TEM-1+CTX-M-15, (isolated in Australia in 2009); • NTBC023 strain: Klebsiella pneumoniae producing VIM-1+SHV-5, (isolated in France in 2002); • NTBC062 strain: Klebsiella pneumoniae producing IMP-1+TEM-1, (isolated in France in 2012);
(§5) The assay was performed according to the standard broth microdilution method described by the Clinical and Laboratory Standards Institute (CLSI-M7-A7—Methods for dilution antimicrobial susceptibility tests for bacteria that grow aerobically; Approved standard; CLSI, Wayne, Pa., USA. 2006). This method involves the use of small volumes of broth dispensed in sterile, plastic 96-wells microdilution plates. The compounds were tested at a concentration of 100 μM and controls included the susceptibility tests for the three selected strains without the compounds and for the two reference strains E. coli ATCC 25922 and Pseudomonas aeruginosa ATCC 27853 as Quality Controls.
(§6) From a stock solution at 20 mM in DMSO, compounds were prepared by diluting 0.04 mL of the compound solution in 0.04 mL of Mueller-Hinton (MH) broth (2-fold dilution). Then, 0.001 mL of the compound dilution was distributed in the 96-wells microdilution plates to give a final concentration of 100 μM for a final volume of 0.1 mL by well.
(§7) From a meropenem stock solution at 10 mg/ml in water, meropenem 2-fold serial dilutions were prepared in MH broth at twice the desired final concentrations, e.g from 512 to 0.0037 μg/ml. The 96-wells microdilution plates were then filled with 0.05 mL of the meropenem dilutions. For each susceptibility test, two wells were left free of antibiotic and filled with 0.05 mL of sterile MH broth to serve as growth controls.
(§8) The bacterial inoculum was prepared by direct colony suspension from a 24 h-agar plate in saline solution (NaCl 9 g/L). The suspension was adjusted to a 0.5 MacFarland turbidity standard (1-2×10^8 CFU/mL) and then diluted 1:100 in MH broth. 0.05 mL of the bacterial dilution was then inoculated to each well giving a final volume of 0.1 mL and a final bacterial concentration of approximately 5×10^5 CFU/mL.
(§9) Microdilution plates were incubated at 37° C. in an ambient air incubator for 18-20 h.

Assay [4] relates to NTBC020 Strain: Escherichia coli producing NDM-1+TEM-1+CTX-M-15. The description is as above. It counts as cell-based. To be noted: compound at 100 μM, 37° C., 18-20 h. The protocol: as §4, §5, §6, §7, §8, §9
The target of assay [5] is T2, IMP-1 (Serratia marcescens, UniProt P52699).
T2 construct: made in house
The assay is described as follows: In vitro MBL inhibition assay, imipenem hydrolysis (IMP-1). Format: biochemical. Conditions: Ki IMP-1, imipenem substrate, Ki from IC50 by Cheng-Prusoff, Km 25 μM. How it is done: The MBL enzyme IMP-1 is produced and purified as disclosed in Laraki et al, Antimicrobial Agents & Chemotherapy, (1999), 43(4), 902-906.
as §1, §2, §3

In assay [6] the target is T3, VIM-2 (Escherichia coli, UniProt Q5U7L7).
T3 construct: made in house
The assay is described as follows: In vitro MBL inhibition assay, imipenem hydrolysis (VIM-2). Format: biochemical. Conditions: Ki VIM-2, imipenem substrate, Ki from IC50 by Cheng-Prusoff, Km 9 μM. The protocol: The MBL enzyme VIM-2 is produced and purified as disclosed in Borgianni et al, Antimicrobial Agents & Chemotherapy, (2010), 54(8), 3197-3204.
as §1, §2, §3

T2 sequence (P52699 19-246, species assumed): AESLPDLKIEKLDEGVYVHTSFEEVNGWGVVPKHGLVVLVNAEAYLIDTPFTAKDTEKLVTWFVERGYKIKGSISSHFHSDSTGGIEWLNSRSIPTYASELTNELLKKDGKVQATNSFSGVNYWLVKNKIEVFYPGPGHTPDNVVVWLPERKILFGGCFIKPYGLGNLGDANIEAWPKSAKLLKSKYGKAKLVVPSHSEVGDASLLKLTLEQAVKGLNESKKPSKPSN
T1 sequence (C7C422 29-270 limits assumed): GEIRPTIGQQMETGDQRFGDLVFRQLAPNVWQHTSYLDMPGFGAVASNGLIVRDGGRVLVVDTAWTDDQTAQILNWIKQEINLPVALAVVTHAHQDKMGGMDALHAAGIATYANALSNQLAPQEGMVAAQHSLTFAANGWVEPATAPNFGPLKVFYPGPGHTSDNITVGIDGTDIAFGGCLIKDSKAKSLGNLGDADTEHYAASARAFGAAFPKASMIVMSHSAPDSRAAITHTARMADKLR

`O=C(O)c1ncsc1NS(=O)(=O)c1ccc(OC2CCNC2)cc1` (centres unmarked) [Compound 163, 5-[4-(pyrrolidin-3-yloxy)phenylsulfonamido]-1,3-thiazole-4-carboxylic acid]: the MIC of meropenem, strain NTBC039 in assay [1] is 16 µg/mL. For the same molecule, the Ki is 370 nM in assay [2], 1000 nM in assay [5] and 280 nM in assay [6]. In addition, in assay [3], the MIC of meropenem, strain NTBC023 was 32 µg/mL. Besides, the MIC of meropenem, strain NTBC020 in assay [4] was determined as 16 µg/mL.

Take `O=C(O)c1ncsc1NS(=O)(=O)c1ccccc1` [Compound 1, 5-benzenesulfonamido-1,3-thiazole-4-carboxylic acid]: in assay [1], the MIC of meropenem, strain NTBC039 came out at 16 µg/mL. The Ki is 1200 nM in assay [2], 80 nM in assay [5] and 320 nM in assay [6]. In addition, the MIC of meropenem, strain NTBC023 in assay [3] worked out at 64 µg/mL. In addition, the MIC of meropenem, strain NTBC020 in assay [4] stood at 32 µg/mL.

As to `N[C@@H](C(=O)N1CCC(c2ccc(S(=O)(=O)Nc3scnc3C(=O)O)cc2)CC1)c1ccccc1` [Compound 172, S-5-[[4-[1-(2-amino-2-phenyl-acetyl)-4-piperidyl]phenyl]sulfonylamino]thiazole-4-carboxylic acid], the MIC of meropenem, strain NTBC039 in assay [1] is 8 µg/mL. In addition, the Ki amounted to 220 nM in assay [2], 760 nM in assay [5] and 50 nM in assay [6]. In addition, in assay [3], the MIC of meropenem, strain NTBC023 was found to be 8 µg/mL. In addition, the MIC of meropenem, strain NTBC020 in assay [4] was determined as 64 µg/mL.

Regarding `O=C(O)c1ncsc1NS(=O)(=O)Cc1cccnc1` [Compound 170, 5-(3-pyridylmethylsulfonylamino)thiazole-4-carboxylic acid], the MIC of meropenem, strain NTBC039 in assay [1] was determined as 0.25 µg/mL. Further, the inhibition constant Ki in assay [2] was 4200 nM; in assay [6], 460 nM. Also, in assay [3], the MIC of meropenem, strain NTBC023 was found to be 1 µg/mL. The MIC of meropenem, strain NTBC020 in assay [4] is 16 µg/mL.

Regarding `O=C(O)c1ncsc1NS(=O)(=O)CC1CCOCC1` [Compound 111, 5-[(oxan-4-ylmethyl)sulfonamido]-1,3-thiazole-4-carboxylic acid], in assay [1], the MIC of meropenem, strain NTBC039 is 0.25 µg/mL. The inhibition constant (Ki) was 2800 nM in assay [2], 900 nM in assay [5] and 220 nM in assay [6]. In addition, in assay [3], the MIC of meropenem, strain NTBC023 worked out at 8 µg/mL. Moreover, in assay [4], the MIC of meropenem, strain NTBC020 is 4 µg/mL.

Consider `O=C(O)c1ncsc1NS(=O)(=O)c1cccnc1` [Compound 67, 5-(pyridine-3-sulfonamido)-1,3-thiazole-4-carboxylic acid], for which the MIC of meropenem, strain NTBC039 in assay [1] stood at 8 µg/mL. The MIC of meropenem, strain NTBC023 in assay [3] came to 16 µg/mL. The MIC of meropenem, strain NTBC020 in assay [4] was 1 µg/mL.

Take `N[C@@H](C(=O)N1CCC(c2ccc(S(=O)(=O)Nc3scnc3C(=O)O)cc2)CC1)c1ccccc1` [Compound 173, R-5-[[4-[1-(2-amino-2-phenyl-acetyl)-4-piperidyl]phenyl]sulfonylamino]thiazole-4-carboxylic acid]: the MIC of meropenem, strain NTBC039 in assay [1] was 8 µg/mL. Moreover, the inhibition constant (Ki) in assay [2] is 180 nM; in assay [5], 330 nM; in assay [6] it was 40 nM. For the same molecule, in assay [3], the MIC of meropenem, strain NTBC023 turned out to be 8 µg/mL. Besides, the MIC of meropenem, strain NTBC020 in assay [4] was determined as 128 µg/mL.

Take `O=C(O)c1ncsc1NS(=O)(=O)c1csc2ccccc12` [Compound 41, 5-(1-benzothiophene-3-sulfonamido)-1,3-thiazole-4-carboxylic acid]: the MIC of meropenem, strain NTBC039 in assay [1] was found to be 4 µg/mL. For the same molecule, the figures for the inhibition constant (Ki) in assay [2], in assay [5] and in assay [6] were 670 nM, 80 nM and 220 nM, respectively. For the same molecule, the MIC of meropenem, strain NTBC023 in assay [3] is 16 µg/mL. In addition, the MIC of meropenem, strain NTBC020 in assay [4] was found to be 64 µg/mL.

`O=C(O)c1ncsc1NS(=O)(=O)Cc1cccc(F)c1F` [Compound 124, 5-{[(2,3-difluorophenyl)methyl]sulfonamido}-1,3-thiazole-4-carboxylic acid]: the MIC of meropenem, strain NTBC039 in assay [1] was found to be 0.25 µg/mL. Also, the MIC of meropenem, strain NTBC023 in assay [3] was determined as 4 µg/mL. The MIC of meropenem, strain NTBC020 in assay [4] amounted to 4 µg/mL.

`O=C(O)c1ncsc1NS(=O)(=O)c1ccc(N2CCCCC2)nc1` [Compound 138, 5-[6-(piperidin-1-yl)pyridin-3-ylsulfonamido]-1,3-thiazole-4-carboxylic acid]: in assay [1], the MIC of meropenem, strain NTBC039 was 1 µg/mL. Also, the Ki in assay [2] came out at 430 nM; in assay [5], 130 nM; in assay [6], 10 nM. In assay [3], the MIC of meropenem, strain NTBC023 amounted to 16 µg/mL. For the same molecule, in assay [4], the MIC of meropenem, strain NTBC020 amounted to 32 µg/mL.

Turning to `O=C(O)c1ncsc1NS(=O)(=O)c1ccccc1Cl` [Compound 66, 5-[(2-chlorophenyl)sulfonamido]-1,3-thiazole-4-carboxylic acid], the MIC of meropenem, strain NTBC039 in assay [1] was determined as 8 µg/mL. Besides, the MIC of meropenem, strain NTBC023 in assay [3] came out at 8 µg/mL. The MIC of meropenem, strain NTBC020 in assay [4] is 16 µg/mL.
